From patent US20120277272A1, “Ethanamine Compounds and Methods of Using the Same” (priority 2008, published 2012)
Where a name gives a salt, the structure may show the parent alone. Read-outs that look alike come from different tables or passages of the source.

How the values were obtained:
NMDA receptor [1] = target: T1, NMDA receptor; test: MK801 binding inhibition (NMDA receptor antagonist activity in vitro); details: inhibition of MK801 binding to the NMDA receptor
T1 construct: Mean Ki; Mean Maximum effect
Experimental: (§1) NMDA receptor antagonist activity can be measured in vitro by assaying a compound's ability to inhibit binding of the receptor antagonist 10,11-dihydro-5-methyl-5H-dibenzo[a,d]-cyclohepten-5,10-imine (MK801) to the receptor. The method is described by Foster and Wong, Br. J. Pharmacol. 91, 403-409 (1987).
as §1, with “was” for “can be”, “10,11-dihdro-5-methyl-5H-dibenzo[a,d]-cyclohepten-5,10-imine” for “10,11-dihydro-5-methyl-5H-dibenzo[a,d]-cyclohepten-5,10-imine”

Human NR1/NR2A channel = Human NR1/NR2A channel (Homo sapiens, UniProt Q05586+Q12879); test: Automated patch clamp (QPatch16) block of NR1/NR2A channel currents in CHO-1H8 cells; format: cell-based
Sequence of Human NR1/NR2A channel (Q12879 23-1464, other chains not shown): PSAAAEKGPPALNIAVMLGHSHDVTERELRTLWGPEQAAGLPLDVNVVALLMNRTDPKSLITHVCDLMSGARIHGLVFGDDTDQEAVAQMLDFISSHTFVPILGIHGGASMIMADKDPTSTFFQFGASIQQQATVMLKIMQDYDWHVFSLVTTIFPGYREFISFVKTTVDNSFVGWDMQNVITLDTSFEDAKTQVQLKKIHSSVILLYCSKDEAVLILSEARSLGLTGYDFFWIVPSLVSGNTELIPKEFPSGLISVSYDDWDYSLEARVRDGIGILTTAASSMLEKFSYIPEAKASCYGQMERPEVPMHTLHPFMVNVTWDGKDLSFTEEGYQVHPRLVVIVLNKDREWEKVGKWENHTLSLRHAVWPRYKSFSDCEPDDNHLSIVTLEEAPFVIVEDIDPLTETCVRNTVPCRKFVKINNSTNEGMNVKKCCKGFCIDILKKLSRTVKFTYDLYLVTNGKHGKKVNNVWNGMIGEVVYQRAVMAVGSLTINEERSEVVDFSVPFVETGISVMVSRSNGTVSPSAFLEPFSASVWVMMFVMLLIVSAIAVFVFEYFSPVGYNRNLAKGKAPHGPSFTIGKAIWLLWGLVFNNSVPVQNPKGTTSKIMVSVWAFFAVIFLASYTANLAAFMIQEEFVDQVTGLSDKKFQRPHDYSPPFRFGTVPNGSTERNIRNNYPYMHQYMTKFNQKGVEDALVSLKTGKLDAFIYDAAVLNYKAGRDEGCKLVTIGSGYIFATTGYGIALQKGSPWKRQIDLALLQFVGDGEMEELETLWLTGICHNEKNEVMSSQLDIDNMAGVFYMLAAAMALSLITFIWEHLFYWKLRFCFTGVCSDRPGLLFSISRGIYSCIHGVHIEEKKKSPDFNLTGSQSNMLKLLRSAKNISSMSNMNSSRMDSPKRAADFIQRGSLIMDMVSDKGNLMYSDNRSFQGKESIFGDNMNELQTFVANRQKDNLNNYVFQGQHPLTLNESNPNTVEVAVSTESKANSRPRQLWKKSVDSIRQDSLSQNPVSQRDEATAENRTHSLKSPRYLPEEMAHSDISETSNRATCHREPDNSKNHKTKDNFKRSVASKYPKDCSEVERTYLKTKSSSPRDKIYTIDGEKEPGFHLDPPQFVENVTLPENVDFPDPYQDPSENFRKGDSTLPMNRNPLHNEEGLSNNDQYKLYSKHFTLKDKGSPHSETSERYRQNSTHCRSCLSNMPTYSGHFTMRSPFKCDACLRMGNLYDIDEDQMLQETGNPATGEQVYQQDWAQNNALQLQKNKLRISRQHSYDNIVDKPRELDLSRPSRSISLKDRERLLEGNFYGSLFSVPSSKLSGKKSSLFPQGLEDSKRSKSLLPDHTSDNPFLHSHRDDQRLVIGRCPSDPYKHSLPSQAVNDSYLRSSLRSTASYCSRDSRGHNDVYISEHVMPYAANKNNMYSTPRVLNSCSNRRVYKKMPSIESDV
Experimental: Chinese Hamster Ovary (CHO-KI) cells were transfected with Effectene^R reagent following the manufacturer's instructions. Cells were triply transfected with plasmids pTet-Off, pTRE2-pur hNR1, and pGEN IRES Hyg-hNR2A. Transfection was done in medium containing Ham's F12, 10% FBS, 2 mM L-Glutamine, 200 μM ketamine and 2 μg/ml doxycycline. 24 hours post transfection, cells were split 1:10 into medium in which 200 μM ketamine was replaced with 20 μM MK-801. After an additional 24 hours (48 hours post transfection), antibiotic selection was performed as follows: 1 μg/ml puromycin, 500 μg/ml hygromycin, and 500 μg/ml geneticin (G418). After two weeks in the selection medium (with medium changes every 3-5 days), 15-20 clones developed in the flask. These clones were pooled and cultured for one more week. Cells were then clonally plated in two 96-well plates at 1 cell/well by limiting dilution. After three weeks, cells were trypsinized and each original 96-well plate was divided into two; one plate was cultured in the presence of 2 μg/ml doxycycline and the other was cultured for assay without doxycycline. After three days, the assay plates were screened for functional NMDAR expression by stimulating with 50 μM glycine/100 μM glutamate. Two positive clones were expanded and tested for glutamate dose response with glycine fixed at 30 μM. One clone, CHO-1H8 gave robust, dose-dependent response to glutamate and was selected for further characterization.
For routine culture, CHO-1H8 cells were maintained in Ham's F-12+2 mM L-Glutamine (PAA, E15-817), 10% FBS (Sigma, F7442), 1 μg/mL puromycin (Invitrogen A1113802), 250 μg/mL hygromycin (Invitrogen 10687010), 250 μg/mL geneticin (Invitrogen 11811-098), 1 μg/mL doxycycline (Sigma D9891), and 300 μM of the NMDA-channel blocker (R)-α-amino-6,7-dimethyl-3-(phosphonomethyl)-2-quinolinepropanoic acid (CAS 170847-87-7, Swahn et al., Bioorg. Med. Chem. Lett. 1996, 1635). Cells to be used in functional assay were grown in same medium as above, but with 1 μg/mL doxycycline replaced by 2 μg/mL tetracycline (Sigma T7660) three days before induction. Growth medium was replaced every 2-3 days, i.e. Monday-Wednesday-Friday. For induction of NMDAR expression, CHO-1H8 cells were cultured without doxycycline or tetracycline (but with CAS 170847-87-7) for 48 hours in medium prepared with Tet System-Approved FBS (BD Biosciences). […]
In order to evaluate effects of test compounds as inhibitors of NR1/NR2A channels, the channels were first activated by addition of a NMDAR agonist NMDA (Sigma, M3262) and Glycine (Merck, 3570) to the extracellular bath solution. […] NR1/NR2A currents were recorded for 12 sec after activation with 100 μM NMDA/10 μM Glycine (Icontrol). […]

NMDA receptor [2] = test: NMDA trapping; format: cell-based; details: Table 4; as described in Mealing et al. 2001
Text: Trapping data was generated as described in Mealing et al., J. Pharmacol. Exp. Therapeutics 2001, (297/3), 906-914.

[3] = Table 1, read-out: MK801 Binding IC50
[4] = Table 4, NR1/NR2A currents, cells clamped at −60 mV, activated with 100 μM NMDA/10 μM Glycine, 0.41-33.33 μM compound, read-out: Mean IC50
[5] = Table 3, listed as Ex 8, fumarate salt

Question: With `CC(C)(c1ccccn1)[C@H](N)c1ccccc1` (as salt: HCl) [Example 2, (R)-2-methyl-1-phenyl-2-(pyridin-2-yl)propan-1-amine] as the molecule, how does the melting point read?
Answer: 188 °C

Question: With `CC(C)(c1ccccn1)[C@@H](N)c1ccccc1` (as salt: HCl) [Example 3, (S)-2-methyl-1-phenyl-2-(pyridin-2-yl)propan-1-amine] as the molecule, how does the melting point read?
Answer: 188 °C

Question: With `CC(C)(c1ccccn1)C(N)c1ccccc1` (racemic) (as salt: hydrochloride) [Example 1, 2-methyl-1-phenyl-2-(pyridin-2-yl)propan-1-amine] as the molecule, how does the melting point read?
Answer: 188 °C

Question: Which results are given for `CC(C)(c1ccccn1)C(N)c1ccccc1` (racemic) [Example 1, 2-methyl-1-phenyl-2-(pyridin-2-yl)propan-1-amine]?
Answer: IC50 (NMDA receptor [1]; [3]): 12 µM; Ki (NMDA receptor [1]; Table 3): 4.9 µM; Mean Maximum effect (NMDA receptor [1]; Table 3): 75%; IC50 (NMDA receptor [1]; Table 3, read-out: Mean IC50): 12 µM

Question: Which IC50 (NMDA receptor [1]; [3]) does the source give for `CC(C)(c1ccccn1)C(N)c1cccc(F)c1` (racemic) [Example 4, 1-(3-fluorophenyl)-2-methyl-2-(pyridin-2-yl)propan-1-amine] here?
Answer: 3.3 µM

Question: Which results are given for `CC(C)(c1ccccn1)C(N)c1cccc(F)c1.O=C(O)/C=C/C(=O)O` (racemic) [Example 9, 1-(3-Fluorophenyl)-2-methyl-2-(pyridin-2-yl)propan-1-amine fumarate salt, racemate]?
Answer: Ki (NMDA receptor [1]; Table 3): 1.3 µM; Mean Maximum effect (NMDA receptor [1]; Table 3): 83%; IC50 (NMDA receptor [1]; Table 3, read-out: Mean IC50): 3.2 µM

Question: With `N[C@@H](Cc1ccccn1)c1ccccc1` (single isomer, unassigned) [Example 13, dihydrochloride, reference compound] as the molecule, how does the Ki (NMDA receptor [1]; Table 3) read?
Answer: 2.9 µM

Question: And the “Mean Maximum effect” value (NMDA receptor [1]; Table 3)?
Answer: 89%

Question: And the IC50 (NMDA receptor [1]; Table 3, read-out: Mean IC50)?
Answer: 6.6 µM

Question: And the IC50 (Human NR1/NR2A channel)?
Answer: 6 µM

Question: And the Trapping (NMDA receptor [2])?
Answer: 53%

Question: With `N[C@H](Cc1ccccn1)c1ccccc1` (single isomer, unassigned) [Example 14, dihydrochloride, reference compound] as the molecule, how does the IC50 (Human NR1/NR2A channel) read?
Answer: 10 µM

Question: For `CC(C)(c1ccccn1)C(N)c1cccc(F)c1.O=C(O)/C=C/C(=O)O` (single isomer, unassigned; stereoisomer 1) [Example 10, 1-(3-fluorophenyl)-2-methyl-2-(pyridin-2-yl)propan-1-amine fumarate salt, stereoisomer 1], which Ki (NMDA receptor [1]; Table 3, listed as Ex 10) is on record?
Answer: 15 µM

Question: What about the “Mean Maximum effect” value (NMDA receptor [1]; Table 3, listed as Ex 10) of the same molecule?
Answer: 87%

Question: And the IC50 (NMDA receptor [1]; Table 3, listed as Ex 10, read-out: Mean IC50)?
Answer: 25 µM

Question: What does the source list for `CC(C)(c1ccccn1)C(N)c1cccc(F)c1.O=C(O)/C=C/C(=O)O` (single isomer, unassigned; stereoisomer 2) [Example 11, 1-(3-fluorophenyl)-2-methyl-2-(pyridin-2-yl)propan-1-amine fumarate salt, stereoisomer 2]?
Answer: Ki (NMDA receptor [1]; Table 3, listed as Ex 11): 2.5 µM; Mean Maximum effect (NMDA receptor [1]; Table 3, listed as Ex 11): 97%; IC50 (NMDA receptor [1]; Table 3, listed as Ex 11, read-out: Mean IC50): 4.1 µM

Question: With `CC(C)(c1ccccn1)[C@H](N)c1ccccc1` [Example 2, (R)-2-methyl-1-phenyl-2-(pyridin-2-yl)propan-1-amine] as the molecule, how does the IC50 (NMDA receptor [1]; [3]) read?
Answer: 6.4 µM

Question: And the Ki (NMDA receptor [1]; Table 3)?
Answer: > 7.9 µM

Question: And the “Mean Maximum effect” value (NMDA receptor [1]; Table 3)?
Answer: 64%

Question: What about the IC50 (NMDA receptor [1]; Table 3, read-out: Mean IC50) of the same molecule?
Answer: > 25 µM

Question: What about the IC50 (Human NR1/NR2A channel; [4]) of the same molecule?
Answer: 10 µM

Question: With `CC(C)(c1ccccn1)[C@@H](N)c1ccccc1` [Example 3, (S)-2-methyl-1-phenyl-2-(pyridin-2-yl)propan-1-amine] as the molecule, how does the IC50 (NMDA receptor [1]; [3]) read?
Answer: 35 µM

Question: And the Ki (NMDA receptor [1]; Table 3, listed as Ex 3)?
Answer: 1.8 µM

Question: And the “Mean Maximum effect” value (NMDA receptor [1]; Table 3, listed as Ex 3)?
Answer: 76%

Question: And the IC50 (NMDA receptor [1]; Table 3, listed as Ex 3, read-out: Mean IC50)?
Answer: 5.7 µM

Question: And the IC50 (Human NR1/NR2A channel; [4])?
Answer: 3 µM

Question: What about the Trapping (NMDA receptor [2]) of the same molecule?
Answer: 39%

Question: Which IC50 (NMDA receptor [1]; [3]) does the source give for `CC(C)(c1ccccn1)[C@H](N)c1cccc(F)c1` [Example 5, (R)-1-(3-fluorophenyl)-2-methyl-2-(pyridin-2-yl)propan-1-amine] here?
Answer: 5.5 µM

Question: Which IC50 (NMDA receptor [1]; [3]) does the source give for `CC(C)(c1ccccn1)[C@@H](N)c1cccc(F)c1` [Example 6, (S)-1-(3-fluorophenyl)-2-methyl-2-(pyridin-2-yl)propan-1-amine] here?
Answer: 25 µM

Question: For `CC(C)(c1ccccn1)[C@@H](N)c1ccccc1` [Example 8, (S)-2-methyl-1-phenyl-2-(pyridine-2-yl)propan-1-amine fumarate salt], which Ki (NMDA receptor [1]; [5]) is on record?
Answer: 3.2 µM

Question: And the “Mean Maximum effect” value (NMDA receptor [1]; [5])?
Answer: 90%

Question: What about the IC50 (NMDA receptor [1]; Table 3, listed as Ex 8, fumarate salt, read-out: Mean IC50) of the same molecule?
Answer: 5.1 µM
